# Experimental data from patent US11492340B2 (priority 2017, dated 2022).
# “And” between values parts separate entries of the source, which are not always exact repeats. Equal values may be shown once. Read-outs that look alike come from different tables or passages of the source.
# What was measured:
# [1] = target: T1, isopropyl phosphate-aged eeAChE (Electrophorus electricus, UniProt O42275); assay: biochemical; parameters: species or system electric eel
# T1 construct: purchased Sigma Aldrich
# T1 sequence (O42275 24-633): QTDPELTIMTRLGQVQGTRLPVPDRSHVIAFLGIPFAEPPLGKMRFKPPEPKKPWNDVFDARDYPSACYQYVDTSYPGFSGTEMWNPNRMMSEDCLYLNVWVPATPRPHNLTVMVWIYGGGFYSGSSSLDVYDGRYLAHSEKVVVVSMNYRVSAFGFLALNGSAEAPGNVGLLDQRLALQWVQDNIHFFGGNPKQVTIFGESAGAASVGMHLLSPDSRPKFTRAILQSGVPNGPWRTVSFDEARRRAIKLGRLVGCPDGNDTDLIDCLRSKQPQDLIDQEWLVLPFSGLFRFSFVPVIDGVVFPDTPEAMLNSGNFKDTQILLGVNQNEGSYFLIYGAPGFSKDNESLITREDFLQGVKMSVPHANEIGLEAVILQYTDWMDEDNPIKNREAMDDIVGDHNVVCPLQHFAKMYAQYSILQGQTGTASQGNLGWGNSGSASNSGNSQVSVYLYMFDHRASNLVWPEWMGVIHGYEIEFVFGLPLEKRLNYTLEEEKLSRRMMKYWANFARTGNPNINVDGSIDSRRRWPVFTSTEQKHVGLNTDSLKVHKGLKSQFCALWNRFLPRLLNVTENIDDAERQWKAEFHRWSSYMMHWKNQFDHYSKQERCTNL
# physchem = details: pH 6
# [2] = target: T2, methylphosphonate-aged eeAChE (Electrophorus electricus, UniProt O42275); format: biochemical, electric eel; details: for screening efficacy, relative activity (FIG. 3B), in words: pH 8
# T2 construct: purchased Sigma Aldrich
# T2 sequence (O42275 24-633): as above
# [3] = target: T2, methylphosphonate-aged eeAChE; format: biochemical, electric eel
# [4] = target: isopropyl phosphate-aged (DFP-treated) recombinant huAChE (Homo sapiens, UniProt P22303); format: biochemical; details: pH 9
# isopropyl phosphate-aged (DFP-treated) recombinant huAChE, sequence (P22303 32-614): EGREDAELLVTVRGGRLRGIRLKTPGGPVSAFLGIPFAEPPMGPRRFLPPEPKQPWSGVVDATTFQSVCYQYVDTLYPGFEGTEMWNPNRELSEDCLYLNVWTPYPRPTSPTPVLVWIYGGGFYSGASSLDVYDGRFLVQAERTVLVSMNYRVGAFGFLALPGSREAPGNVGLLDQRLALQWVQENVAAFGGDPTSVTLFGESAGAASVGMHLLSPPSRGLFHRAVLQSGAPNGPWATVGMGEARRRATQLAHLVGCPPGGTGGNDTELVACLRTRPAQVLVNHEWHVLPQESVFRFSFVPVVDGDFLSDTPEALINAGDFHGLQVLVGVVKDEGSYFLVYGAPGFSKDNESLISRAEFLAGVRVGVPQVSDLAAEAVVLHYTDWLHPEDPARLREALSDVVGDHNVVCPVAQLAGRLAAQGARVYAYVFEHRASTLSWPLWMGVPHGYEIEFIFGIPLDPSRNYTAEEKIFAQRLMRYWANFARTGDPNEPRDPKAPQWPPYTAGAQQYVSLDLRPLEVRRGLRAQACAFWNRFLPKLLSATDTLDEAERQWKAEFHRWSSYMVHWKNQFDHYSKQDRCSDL
# [5] = target: T1, isopropyl phosphate-aged eeAChE; format: biochemical, electric eel
# [6] = target: T3, methylphosphonate-aged AChE (Electrophorus electricus, UniProt O42275); format: biochemical, electric eel
# T3 construct: purchased Sigma Aldrich
# T3 sequence (O42275 24-633): as the sequence (O42275 24-633) above
# [7] = target: T2, methylphosphonate-aged eeAChE; format: biochemical, electric eel; details: pH 8
# [8] = target: T1, isopropyl phosphate-aged eeAChE; format: biochemical, electric eel; remark: listed apart in the source
# [9] = target: T1, isopropyl phosphate-aged eeAChE; format: biochemical, electric eel; details: pH 8
# [10] = target: T2, methylphosphonate-aged eeAChE; assay: biochemical; parameters: species or system electric eel
# [11] = target: T1, isopropyl phosphate-aged eeAChE; format: biochemical, electric eel; remark: listed apart in the source
smiles,measurement,setting,value
"Oc1cccnc1CN1CCCC1 [C8, 2-(pyrrolidin-1-ylmethyl)pyridin-3-ol]",EC50,[1],5.87 mM
same,pKa,physchem,7 to 8
same,"activity in comparison of scaffolds with pyrrolidine leaving group (M series), in words",[2],only active compound in this comparison
same,reactivation (resurrection of AChE activity),[2],~2.5%
same,"screening efficacy, relative activity (FIG. 3B), in words",[2],most potent candidate in this screen
same,Relative activity (percentage of positive control),[3]; pH 6,0.273 ± 0.004%
same,Relative activity (percentage of positive control),[3]; pH 7,1.24 ± 0.02%
same,Relative activity (percentage of positive control),[3]; pH 8,8.47 ± 0.17%
same,aged enzyme resurrected,[4],18%
same,Percentage of AChE species: Aged,[5],84.6%
same,Percentage of AChE species: Native,[5],15.4%
same,Percentage of AChE species: Realkylated,[5],0%
same,Percentage of AChE species: Aged,[6],97.9%
same,Percentage of AChE species: Native,[6],2.1%
same,Percentage of AChE species: Realkylated,[6],0%
same,apparent reaction rate,[7],0.32 % per hour
same,resurrected relative activity,[7],32.7%
same,Relative activity (percentage of positive control),[8]; pH 6,0.68 ± 0.06%
same,Relative activity (percentage of positive control),[8]; pH 7,1.04 ± 0.07%
same,Relative activity (percentage of positive control),[8]; pH 8,3.58 ± 0.33%
same,Relative activity (percentage of positive control),[8]; pH 9,5.27 ± 0.59%
same,apparent reaction rate,[9],0.20 % per hour
same,resurrected relative activity,[9],20.4% and 30.4%
same,EC50,[10],1.18 mM
same,reactivation (resurrection of AChE activity),[11],1.25%
"CCN(CC)Cc1ncccc1O [C7, 2-((diethylamino)methyl)pyridin-3-ol]","screening efficacy, relative activity (FIG. 3B), in words",[2],highest efficacy among C1 to C7
"C[n+]1ccccc1/C=N/O [2-PAM, 2-pralidoxime, reference compound]",Percentage of AChE species: Aged,[5],100%
same,Percentage of AChE species: Native,[5],0%
same,Percentage of AChE species: Realkylated,[5],0%
same,Percentage of AChE species: Aged,[6],100%
same,Percentage of AChE species: Native,[6],0%
same,Percentage of AChE species: Realkylated,[6],0%
